Assay results from ChEMBL document CHEMBL1155353, “Isatin derivatives, a novel class of transthyretin fibrillogenesis inhibitors” (Bioorg Med Chem Lett, 2009).
Calls of active or inactive are those of the source. The rule behind the calls is not given here.

Assays:
Transthyretin [1] = target: T1, Transthyretin (Homo sapiens, UniProt P02766); test: Displacement of [125I]thyroxin from TTR
Transthyretin [2] = target: T1, Transthyretin; test: Inhibition of TTR mediated fibrillogenesis assessed as acid-induced protein aggregation turbidity after 1.5 hrs by turbidimetric assay relative to control; design: concentration or dose not given beside the values
Transthyretin [3] = target: T1, Transthyretin; test: Inhibition of TTR mediated fibrillogenesis assessed as acid-induced protein aggregation turbidity after 1.5 hrs by turbidimetric assay
Transthyretin [4] = target: T1, Transthyretin; test: Inhibition of TTR mediated fibrillogenesis assessed as acid-induced protein aggregation turbidity at […] after 1.5 hrs by turbidimetric assay relative to control; design: scale not given: the % may be the effect or the level left
Transthyretin [5] = target: T1, Transthyretin; test: Binding affinity to TTR at 40 uM by isothermal titration calorimetry

`N[C@@H](Cc1cc(I)c(Oc2cc(I)c(O)c(I)c2)c(I)c1)C(=O)O` was tested, and the Activity (Transthyretin [1]) was “inactive” and the Activity (Transthyretin [2]) was 95%.
`COc1ccc(/N=C2\C(=O)Nc3ccc(C)cc32)cc1` was tested, and the Activity (Transthyretin [1]) was “inactive”, the Activity (Transthyretin [2]) was 32% and the IC50 (Transthyretin [3]) was over 50 µM.
In the case of `CN1C(=O)/C(=N\c2ccc([N+](=O)[O-])cc2)c2ccccc21`, the Activity (Transthyretin [1]) is reported as “inactive”, the Activity (Transthyretin [2]) is reported as 86% and the IC50 (Transthyretin [3]) is reported as 6.3 µM.
With `CN1C(=O)/C(=N\c2ccccc2)c2ccccc21` the Activity (Transthyretin [1]) was “inactive”, the Activity (Transthyretin [2]) was 77% and the IC50 (Transthyretin [3]) was 11 µM.
`CN1C(=O)C(=O)c2ccccc21` was tested, and the Activity (Transthyretin [1]) was “inactive”, the Activity (Transthyretin [2]) was 100% and the IC50 (Transthyretin [3]) was 6.3 µM.
In the case of `Cc1ccc(/N=C2\C(=O)N(C)c3ccccc32)cc1`, the Activity (Transthyretin [1]) is reported as “inactive”, the Activity (Transthyretin [2]) is reported as 8.6% and the IC50 (Transthyretin [3]) is reported as 6.3 µM.
For `COc1ccc(/N=C2\C(=O)Nc3ccc(I)cc32)cc1`, the Activity (Transthyretin [1]) was “inactive”, the Activity (Transthyretin [2]) was 42% and the IC50 (Transthyretin [3]) was over 50 µM.
In the case of `COc1ccc(/N=C2\C(=O)Nc3ccccc32)cc1`, the Activity (Transthyretin [1]) is reported as “inactive” and the Activity (Transthyretin [2]) is reported as 100%.
`COc1ccc(/N=C2\C(=O)N(C)c3ccccc32)cc1` was tested, and the Activity (Transthyretin [1]) was “inactive”, the Activity (Transthyretin [2]) was 81% and the IC50 (Transthyretin [3]) was 7.7 µM.
For `COc1ccc(/N=C2\C(=O)Nc3ccc(Br)cc32)cc1`, the Activity (Transthyretin [1]) was “inactive”, the Activity (Transthyretin [2]) was 48% and the IC50 (Transthyretin [3]) was over 50 µM.
In the case of `O=C1Nc2ccc(I)cc2/C1=N/c1ccccc1`, the Activity (Transthyretin [1]) is reported as “inactive”, the Activity (Transthyretin [2]) is reported as 1% and the IC50 (Transthyretin [3]) is reported as over 50 µM.
In the case of `COc1ccc(/N=C2\C(=O)Nc3ccc([N+](=O)[O-])cc32)cc1`, the Activity (Transthyretin [1]) is reported as “inactive”, the Activity (Transthyretin [2]) is reported as 24% and the IC50 (Transthyretin [3]) is reported as over 50 µM.
In the case of `CN1C(=O)/C(=N\c2ccc(I)cc2)c2ccccc21`, the Activity (Transthyretin [1]) is reported as “inactive”, the Activity (Transthyretin [2]) is reported as 0% and the IC50 (Transthyretin [3]) is reported as over 50 µM.
In the case of `O=C1Nc2ccc(Br)cc2/C1=N/c1ccc(I)cc1`, the Activity (Transthyretin [1]) is reported as “inactive”, the Activity (Transthyretin [2]) is reported as 16% and the IC50 (Transthyretin [3]) is reported as over 50 µM.
With `Oc1c(I)cc(I)cc1I` [TRIIODOPHENOL] the Activity (Transthyretin [1]) was “inactive”, the Activity (Transthyretin [2]) was 80% and the IC50 (Transthyretin [3]) was 3.2 µM.
For `O=C1Nc2ccccc2C1=O` [ISATIN], the Activity (Transthyretin [1]) was “inactive”, the IC50 (Transthyretin [3]) was over 50 µM and the Activity (Transthyretin [4]) was 24%.
With `O=C1Nc2ccc([N+](=O)[O-])cc2/C1=N/c1ccc(I)cc1` the Activity (Transthyretin [1]) was “inactive”, the Activity (Transthyretin [2]) was 7% and the IC50 (Transthyretin [3]) was over 50 µM. The Activity (Transthyretin [4]) was 7%.
With `O=C1Nc2ccccc2/C1=N/c1ccc([N+](=O)[O-])cc1` the Activity (Transthyretin [1]) was “inactive”, the Activity (Transthyretin [2]) was 90% and the IC50 (Transthyretin [3]) was 2.8 µM. For the same compound, the Activity (Transthyretin [5]) was “inactive”.
In the case of `Cc1ccc2c(c1)/C(=N/c1ccc(I)cc1)C(=O)N2`, the Activity (Transthyretin [1]) is reported as “inactive”, the Activity (Transthyretin [2]) is reported as “inactive” and the IC50 (Transthyretin [3]) is reported as over 50 µM. For the same compound, the Activity (Transthyretin [4]) was 7%.
For `O=C1Nc2ccccc2/C1=N/c1ccc(I)cc1`, the Activity (Transthyretin [1]) was “inactive”, the Activity (Transthyretin [2]) was 0% and the IC50 (Transthyretin [3]) was over 50 µM.
For `Cc1ccc(/N=C2\C(=O)Nc3ccccc32)cc1`, the Activity (Transthyretin [1]) was “inactive”, the IC50 (Transthyretin [3]) was over 50 µM and the Activity (Transthyretin [4]) was 14%.
`COc1ccc(/N=C2/C(=O)Nc3ccccc32)cc1` gave an IC50 (Transthyretin [3]) of 8.1 µM.
With `O=C1Nc2ccc(I)cc2/C1=N/c1ccc(I)cc1` the Activity (Transthyretin [1]) was “inactive”, the Activity (Transthyretin [2]) was 23% and the IC50 (Transthyretin [3]) was over 50 µM.
